Test results taken from EP4729518A1, “CRYSTAL FORM OF METHIONINE ADENOSYLTRANSFERASE 2A HETEROCYCLIC INHIBITOR, PREPARATION METHOD THEREFOR, AND USE THEREOF” (Nanjing Chia Tai Tianqing Pharmaceutical Co., Ltd., priority 2023, dated 2024).
Values after ≈ are worked out from the molar mass of the structure shown. Like-named read-outs stand apart in the source and are kept apart here.

Assays:
MAT2A enzyme = target: T1, MAT2A enzyme (Homo sapiens, UniProt P31153); assay: MAT2A enzymatic assay (Biomol Green, OD620); format: biochemical
T1 construct: purchased BPS 71401
Procedure: • a) First, a 5× MAT2A assay buffer (250 mM Tris-HCl, pH 8.0; 250 mM KCl; 75 mM MgCl2; 0.025% BSA; 0.05% Brij35; 1.5 mM EDTA) was prepared and partially diluted to 1× for later use. • b) Preparation and addition of MAT2A enzyme (BPS, 71401): The MAT2A enzyme was diluted to 3.674 ng/µL (1.67×, final concentration: 2.20 ng/µL) with the 1× MAT2A assay buffer. Using a BioTek (MultiFlo FX) automated dispenser, the 1.67× MAT2A enzyme solution was added to the compound test wells and negative control wells of a plate at 15 µL/well, and meanwhile, the 1× MAT2A assay buffer was added to the blank control wells at 15 µL/well. • c) Preparation and addition of compounds: The test compound was diluted from a 10 mM stock solution to 100 µM with DMSO, and the positive control drug AGI-24512 was diluted under the same conditions. Using a Tecan compound dispenser (D300e), the dilutions were automatically dispensed into each well according to a preset concentration gradient. The dispensed volume was minimal and considered negligible. The concentration gradient started at 1 µM (1/2 log dilution), and a total of 8 gradient points were set. The plate was centrifuged at 2500 rpm for 30 s and incubated at 25 °C for 30 min. • d) Preparation of ATP: 10 mM ATP (Sigma, A7699) was diluted to 700 µM with the 1× MAT2A assay buffer for later use. • e) Preparation and addition of mixed solution of substrate and ATP: A mixed solution was prepared containing the 5× MAT2A assay buffer (3 µL/well), 750 µM L-methionine (Adamas, 01100469) (2.5 µL/well), 700 µM ATP (2.5 µL/well), and double distilled water (2 µL/well). The total amount of the required mixed solution was prepared according to the number of detection wells. Using a BioTek (MultiFlo FX) automated dispenser, the mixed solution was added at 10 µL/well. The resulting mixture was centrifuged at 2500 rpm for 30 s and allowed to react at 25 °C for 150 min. • f) Addition of Biomol Green detection reagent: Using a BioTek (MultiFlo FX) automated dispenser, Biomol Green (Enzo, BML-AK111) was added at 50 µL/well. The plate was centrifuged at 2500 rpm for 30 s and incubated at 25 °C for 20 min. • g) After the reaction was completed, the OD620 values were measured using a Perkin Elmer (Envision 2105) multimode microplate reader.
The inhibition rate was calculated using the following formula: Inhibition rate % = (ODmax −ODsample)/(ODmax −ODmin) × 100% [formula] where: • ODsample represents the OD620 value of the sample well; • ODmin represents the mean OD620 value of the blank control wells containing no enzyme and no test compound; • ODmax represents the mean OD620 value of the negative control wells containing enzyme but no compound. […]

[1] = Heating experiment via DSC followed by XRD; format: physicochemical; settings: Heating temperature 110 °C
Description: The heated samples were then collected and subjected to XRD analysis. Table 27: Summary of heating test results for various crystal forms

[2] = Room-temperature solubility in solvents; format: physicochemical; settings: thermodynamic from solid, read-out: Solubility S
Procedure: Determination of the solubility of the crystal form G was conducted in 20 selected solvents at room temperature. A sample (about 2 mg) was weighed and added to a 3-mL vial, and the corresponding solvent listed in Table 29 below was added (100 µL each time) until the solid was dissolved. If the solid was still not completely dissolved after 2 mL of the solvent was added, further addition was stopped. The solubility range in the corresponding solvent was calculated according to the mass of the sample and the volume of the solvent. Table 29: Solubility ranges of crystal form G at room temperature

[3] = Dynamic solubility in buffers and water (HPLC, XRD of remaining solid); format: physicochemical; settings: 37 °C; for solubility at 1 h / solubility at 4 h / solubility at 24 h: thermodynamic from solid, feed concentration 10 mg/mL
Procedure: 2.1. Hydrochloric acid solution at pH 1.0: A specified amount (9.00 mL) of hydrochloric acid was taken, diluted to 1000 mL with water, and shaken well to give the desired solution.
0.2 mol/L potassium dihydrogen phosphate solution: 27.22 g of potassium dihydrogen phosphate was taken, and dissolved and diluted to 1000 mL with water.
0.2 mol/L sodium hydroxide solution: 8.00 g of sodium hydroxide was taken, and dissolved and diluted to 1000 mL with water.
250 mL of a 0.2 mol/L potassium dihydrogen phosphate solution was taken and mixed with the specified amount of a 0.2 mol/L sodium hydroxide solution indicated in the table below. Then, the mixture was diluted to 1000 mL with water and shaken well to give the desired solution. Table 23: Phosphate buffer
Determination of the 1-, 4-, and 24-hour solubilities of the sample in four solvent systems (pH 1.0 buffer, pH 4.5 buffer, pH 6.8 buffer, and water) was conducted with a feed concentration of 10 mg/mL by shaking (400 rpm) at 37 °C. At each time point, a sample was taken, centrifuged (10000 rpm, 2 min), and filtered (through a 0.22 µm PTFE filter membrane, with the initial filtrate discarded). The HPLC concentration of the filtrate was then determined, and the remaining solid was subjected to XRD analysis. Table 30. Summary of dynamic solubility test results for crystal form G

T1 sequence (P31153 whole entry): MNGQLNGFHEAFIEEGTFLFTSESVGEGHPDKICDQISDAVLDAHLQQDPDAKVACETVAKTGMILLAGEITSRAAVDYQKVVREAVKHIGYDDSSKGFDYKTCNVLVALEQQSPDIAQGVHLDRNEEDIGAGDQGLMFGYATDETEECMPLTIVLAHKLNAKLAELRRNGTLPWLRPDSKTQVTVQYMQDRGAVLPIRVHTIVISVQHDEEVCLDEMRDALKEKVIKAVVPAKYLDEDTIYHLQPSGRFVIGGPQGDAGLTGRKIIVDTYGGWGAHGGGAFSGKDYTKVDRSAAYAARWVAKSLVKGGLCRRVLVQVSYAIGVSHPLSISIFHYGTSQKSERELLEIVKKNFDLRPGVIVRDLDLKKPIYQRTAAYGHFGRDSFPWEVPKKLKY

With Cc1[nH]c2c(N3CCCCC3)c(-c3ccccc3)nn2c(=O)c1-c1ccc(O)cc1 [AGI-24512, reference compound] the IC50 (MAT2A enzyme) was 0.0268 µM.
With Cn1cc2cc(-c3nn4ccc(C5CC5)nc4c(-c4ccc(OC(F)F)cc4)c3=O)ccc2n1 [Crystal form G, 2-cyclopropyl-9-[4-(difluoromethoxy)phenyl]-7-(2-methyl-2H-indazol-5-yl)-8H-pyrimido[1,2-b]pyridazin-8-one] the “After heating (crystal form)” value [1] was “Crystal form A”, the solubility ([2]; organic solvent or mixture, 1,4-Dioxane, room temperature) was 4800 to 6300 µg/mL (≈ 10400 to 13700 µM) and the solubility ([2]; organic solvent or mixture, ACN, room temperature) was roughly 1100 µg/mL (≈ 2390 µM). It also gave a solubility ([2]; organic solvent or mixture, ACN/H2O (10:1), room temperature) of less than 1100 µg/mL, a solubility ([2]; organic solvent or mixture, Acetone, room temperature) of roughly 1000 µg/mL (≈ 2180 µM) and a solubility ([2]; organic solvent or mixture, CHCl3, room temperature) greater than 10500 µg/mL. For the same molecule, the solubility ([2]; organic solvent or mixture, DCM, room temperature) was 1900 to 2300 µg/mL (≈ 4140 to 5010 µM), the solubility ([2]; organic solvent or mixture, DMAc, room temperature) was greater than 40000 µg/mL and the solubility ([2]; organic solvent or mixture, DMF, room temperature) was 21000 to 42000 µg/mL (≈ 45700 to 91400 µM). For the same molecule, the solubility ([2]; organic solvent or mixture, DMSO, room temperature) was 9500 to 19000 µg/mL (≈ 20700 to 41400 µM), the solubility ([2]; organic solvent or mixture, EtOAc, room temperature) was 1100 to 2200 µg/mL (≈ 2390 to 4790 µM) and the solubility ([2]; organic solvent or mixture, EtOH, room temperature) was roughly 1200 µg/mL (≈ 2610 µM). It also gave a solubility ([2]; organic solvent or mixture, IPA, room temperature) of roughly 1000 µg/mL (≈ 2180 µM), a solubility ([2]; organic solvent or mixture, IPAc, room temperature) of roughly 1100 µg/mL (≈ 2390 µM) and a solubility ([2]; organic solvent or mixture, MEK, room temperature) of 5300 to 10500 µg/mL (≈ 11500 to 22900 µM). The solubility ([2]; organic solvent or mixture, MIBK, room temperature) was 2000 to 2500 µg/mL (≈ 4350 to 5440 µM), the solubility ([2]; organic solvent or mixture, MTBE, room temperature) was less than 1100 µg/mL and the solubility ([2]; organic solvent or mixture, MeOH, room temperature) was 3710 to 5500 µg/mL (≈ 8070 to 12000 µM). It also gave a solubility ([2]; organic solvent or mixture, MeOH/DCM (1:1), room temperature) of 5000 to 10000 µg/mL (≈ 10900 to 21800 µM), a solubility ([2]; organic solvent or mixture, THF, room temperature) of 7000 to 10500 µg/mL (≈ 15200 to 22900 µM) and a solubility ([2]; water, H2O, room temperature) of less than 1100 µg/mL. The Crystal form change ([3]; H2O, 1 h) was “Yes”, the Crystal form change ([3]; H2O, 4 h) was “Yes” and the Crystal form change ([3]; H2O, 24 h) was “Yes”. The Crystal form change ([3]; pH 1.0, 1 h) was “Yes”, the Crystal form change ([3]; pH 1.0, 4 h) was “Yes” and the Crystal form change ([3]; pH 1.0, 24 h) was “Yes”. It also gave a solubility at 1 h ([3]; pH 1.0 buffer, simulated gastric fluid, pH 1.0, 1 h) of 0.32 µg/mL (≈ 0.696 µM), a solubility at 4 h ([3]; pH 1.0 buffer, simulated gastric fluid, pH 1.0, 4 h) of 0.16 µg/mL (≈ 0.348 µM) and a solubility at 24 h ([3]; pH 1.0 buffer, simulated gastric fluid, pH 1.0, 24 h) of 0.12 µg/mL (≈ 0.261 µM). For the same molecule, the Crystal form change ([3]; pH 4.5, 1 h) was “Yes”, the Crystal form change ([3]; pH 4.5, 4 h) was “Yes” and the Crystal form change ([3]; pH 4.5, 24 h) was “Yes”. For the same molecule, the solubility at 4 h ([3]; pH 4.5 buffer, aqueous buffer, pH 4.5, 4 h) was 0.07 µg/mL (≈ 0.152 µM), the solubility at 24 h ([3]; pH 4.5 buffer, aqueous buffer, pH 4.5, 24 h) was 0.08 µg/mL (≈ 0.174 µM) and the Crystal form change ([3]; pH 6.8, 1 h) was “Yes”. The Crystal form change ([3]; pH 6.8, 4 h) was “Yes”, the Crystal form change ([3]; pH 6.8, 24 h) was “Yes” and the solubility at 24 h ([3]; pH 6.8 buffer, aqueous buffer, pH 6.8, 24 h) was 0.06 µg/mL (≈ 0.131 µM). The solubility at 1 h ([3]; water, H2O, 1 h) was 0.13 µg/mL (≈ 0.283 µM) and the solubility at 4 h ([3]; water, H2O, 4 h) was 0.09 µg/mL (≈ 0.196 µM).
